Our source for the IC50 values is patent publication US20220324865A1 (Bayer Aktiengesellschaft, priority 2018, published 2022).

The target in this assay is T1, human EP3 receptor (Homo sapiens, UniProt P43115).
T1 construct: expressed in transfected cells; host or cells: CHO K1 (Chinese Hamster Ovary), stably co-transfected with Galpha16 and mitochondrial clytin
T1 sequence (P43115 1-390): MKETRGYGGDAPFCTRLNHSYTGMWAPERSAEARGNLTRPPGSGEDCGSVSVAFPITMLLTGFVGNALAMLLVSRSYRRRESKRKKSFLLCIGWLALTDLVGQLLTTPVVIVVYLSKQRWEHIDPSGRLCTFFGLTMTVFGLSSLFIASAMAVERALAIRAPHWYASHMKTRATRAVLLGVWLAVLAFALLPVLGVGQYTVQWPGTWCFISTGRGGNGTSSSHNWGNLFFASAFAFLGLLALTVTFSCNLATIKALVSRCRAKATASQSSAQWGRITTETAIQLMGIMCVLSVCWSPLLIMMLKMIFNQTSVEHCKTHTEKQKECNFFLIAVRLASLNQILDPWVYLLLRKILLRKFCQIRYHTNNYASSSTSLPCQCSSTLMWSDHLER
Kind of assay: Cellular in vitro assay for determining EP3 receptor activity (human EP3 cell line, sulprostone-stimulated calcium luminescence). To be noted: CHO cells expressing human EP3 and mitochondrial Clytin; antagonist mode, sulprostone at EC50; read-out: EP3 CHO mtCLY ANTAG IC50. The format is cell-based. In short, it runs like this:
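CHO K1 cells stably expressing human EP3 with Gα16 and mitochondrial Clytin, loaded overnight with coelenterazine. Compounds added 10 min before sulprostone at its EC50; antagonism read immediately as reduced calcium-driven luminescence, quadruplicate points.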
For the compound `CC(C)c1c(C(=O)N[C@H](CCO)c2ccc(F)cc2)nn2cc(-c3cccc(Cl)c3)[nH]c(=O)c12` [6-682], the IC50 came to 1.09 nM.

Turning to `Cc1ccc(-c2cn3nc(C(=O)NC4(c5ccc(F)cc5)CCN(C)C4)cc3c(=O)[nH]2)cc1C` (racemic) [6-362], the IC50 is 27 nM.

Regarding `Cc1ccc(-c2cn3nc(C(=O)NC4(c5ccc(F)cc5)CN(CC(F)F)C4)c(C(F)(F)F)c3c(=O)[nH]2)cc1Cl` [6-202], the IC50 was determined as 0.97 nM.

On to `CC(C)(O)[C@@H](NC(=O)c1cc2c(=O)[nH]c(-c3ccc4ccccc4c3)cn2n1)c1ccccc1` [Example 1-3, N-[(1S)-2-Hydroxy-2-methyl-1-phenylpropyl]-6-(naphthalen-2-yl)-4-oxo-4,5-dihydropyrazolo-[1,5-a]pyrazine-2-carboxamide], for which the concentration for half-maximal inhibition (IC50) was found to be 0.653 nM.

For `CC(C)(O)[C@@H](NC(=O)c1nn2cc(-c3cccc(Cl)c3)[nH]c(=O)c2c1C1CC1)c1ccc(F)cc1` [6-677], the IC50 is 0.45 nM.

For `COCc1c(C(=O)N[C@H](CCO)c2ccc(F)cc2)nn2cc(-c3ccc4ccccc4c3)[nH]c(=O)c12` [Example 1-55, N-[(1R)-1-(4-Fluorophenyl)-3-hydroxopyl]-3-(methoxymethyl)-6-(naphthalen-2-yl)-4-oxo-4,5-dihydropyrazolo[1,5-a]pyrazine-2-carboxamide], the IC50 was 0.488 nM.

For `Cc1cc(-c2cn3nc(C(=O)NCC(N)C(F)(F)F)c(C4CC4)c3c(=O)[nH]2)ccc1C(F)(F)F` (single isomer, unassigned) [6-132], the IC50 was determined as 7.6 nM.

Regarding `CCC(NC(=O)c1cc2c(=O)[nH]c(-c3ccc4ccccc4c3)cn2n1)C(F)(F)F` (stereo not drawn) [6-61], the 50% inhibitory concentration (IC50) was 4.13 nM.

Regarding `Cc1ccc(-c2cn3nc(C(=O)N[C@@H](c4ccc(F)cc4)[C@H](O)C(F)(F)F)c(C4CC4)c3c(=O)[nH]2)cc1Cl` [6-272], the IC50 amounted to 1.22 nM.

For the compound `O=C(NCC(O)C(F)(F)F)c1nn2cc(-c3ccc4c(c3)OCCO4)[nH]c(=O)c2c1C(F)(F)F` (single isomer, unassigned) [6-532], the half-inhibitory concentration (IC50) was found to be 8.9 nM.

With `O=C(NCC(O)C(F)(F)F)c1nn2cc(-c3ccc4c(c3)OCCO4)[nH]c(=O)c2c1C(F)(F)F` (single isomer, unassigned) [6-533], the concentration for half-maximal inhibition (IC50) worked out at 5.55 nM.

As to `Cc1cc(-c2cn3nc(C(=O)NC(CO)c4ccc(F)cc4)c(C4CC4)c3c(=O)[nH]2)ccc1C(F)(F)F` (racemic) [6-129], the half-maximal inhibitory concentration (IC50) turned out to be 5.45 nM.

Take `COc1ccc(C(C)NC(=O)c2cc3c(=O)[nH]c(-c4ccc5ccccc5c4)cn3n2)cn1` (stereo not drawn) [Example 1-104, N-[1-(6-Methompyridin-3-yl)ethyl]-6-(2-naphthyl)-4-oxo-5H-pyrazolo[1,5-a]pyrazine-2-carboxamide]: the concentration for half-maximal inhibition (IC50) amounted to 2.26 nM.

In the case of `O=C(N[C@H](CCO)c1ccc(F)cc1)c1cc2c(=O)[nH]c(-c3cnc4ccccc4c3)cn2n1` [6-11], the half-maximal inhibitory concentration (IC50) worked out at 4.65 nM.

Turning to `Cc1c(C(=O)NC(C)c2cccnc2)nn2c(C)c(-c3ccc4ccccc4c3)[nH]c(=O)c12` (stereo not drawn) [Example 3-73, 3,7-Dimethyl-6-(2-naphthyl)-4-oxo-N-[1-(3-pyridyl)ethyl]-5H-pyrazolo[1,5-a]pyrazine-2-carboxamide], the half-maximal inhibitory concentration (IC50) came out at 2.7 nM.

With `CC(C)c1c(C(=O)N[C@@H](c2ccc(F)cc2)C(C)(C)O)nn2cc(-c3cccc(Cl)c3)[nH]c(=O)c12` [6-683], the concentration for half-maximal inhibition (IC50) is 1.06 nM.

Regarding `COc1cc(-c2cn3nc(C(=O)NC4(c5ccc(F)cc5)CN(C)C4)c(C4CC4)c3c(=O)[nH]2)ccc1Cl` [6-485], the IC50 worked out at 3.4 nM.

For the compound `CCn1ccc(C(C)NC(=O)c2nn3c(C)c(-c4ccc5ccccc5c4)[nH]c(=O)c3c2C)n1` (stereo not drawn) [Example 3-4, N-[1-(1-Ethylpyrazol-3-yl)ethyl]-3,7-dimethyl-6-(2-naphthyl)-4-oxo-5H-pyrazolo[1,5-a]pyrazine-2-carboxamide], the IC50 was determined as 2.6 nM.

On to `CN1CCC(NC(=O)c2nn3cc(-c4ccc5ccccc5c4)[nH]c(=O)c3c2C(F)(F)F)(c2ccc(F)cc2)C1` (racemic) [6-510], for which the half-maximal inhibitory concentration (IC50) came out at 8.53 nM.

For `N#Cc1c(C(=O)NC2(c3ccc(F)cc3)CC2)nn2cc(-c3ccc4ccccc4c3)[nH]c(=O)c12` [6-70], the IC50 was determined as 4.75 nM.

For `Cc1cccc2ncc(-c3cn4nc(C(=O)NC5CCS(=O)(=O)C5)c(C(C)C)c4c(=O)[nH]3)cc12` (stereo not drawn) [Example 4-12, N-(1,1-Dioxothiolan-3-yl)-3-isopropyl-6-(5-methyl-3-quinolyl)-4-oxo-5H-pyrazolo[1,5-a]pyrazine-2-carboxamide], the half-maximal inhibitory concentration (IC50) came out at 1.65 nM.

As to `Cc1ccc(-c2cn3nc(C(=O)N[C@@H](c4ccc(F)cc4)C(C)(C)O)c(C4CC(F)(F)C4)c3c(=O)[nH]2)cc1Cl` [6-559], the IC50 is 6.07 nM.

Turning to `CC(C)(O)[C@@H](NC(=O)c1nn2cc(-c3ccc(Cl)c(F)c3)[nH]c(=O)c2c1C1CC(F)(F)C1)c1ccc(F)cc1` [6-555], the half-inhibitory concentration (IC50) was 3.35 nM.

Regarding `Cc1ccc(-c2cn3nc(C(=O)NC[C@@]4(C5CC5)NC(=O)NC4=O)c(C4CC4)c3c(=O)[nH]2)cc1C` [6-456], the IC50 was 5.95 nM.

As for `Cc1cc(-c2cn3nc(C(=O)NC4(c5ccccc5)CCOCC4)c(C(F)(F)F)c3c(=O)[nH]2)ccc1Cl` [6-230], the half-maximal inhibitory concentration (IC50) is 1.6 nM.

On to `Cc1ccc(-c2cn3nc(C(=O)NCC(O)C(F)(F)F)c(C(F)(F)F)c3c(=O)[nH]2)cc1C` (single isomer, unassigned) [6-117], for which the IC50 is 3.85 nM.

On to `COc1ccc(C2(NC(=O)c3cc4c(=O)[nH]c(-c5ccc(C)c(C)c5)cn4n3)CN(C(=O)OC(C)(C)C)C2)cc1` [Example 1-64, tert.-Butyl 3-({[6-(3,4-dimethylphenyl)-4-oxo-4,5-dihydropyrazolo[1,5-a]pyrazin-2-yl]carbonyl}-amino)-3-(4-methoxyphenyl)azetidine-1-carboxylate], for which the IC50 was found to be 4.55 nM.

Regarding `Cn1cc(CNC(=O)c2nn3cc(-c4ccc5ccccc5c4)[nH]c(=O)c3c2C#N)cn1` [Example 3-45, 3-Cyano-N-[(1-methyl-1H-pyrazol-4-yl)methyl]-6-(naphthalen-2-yl)-4-oxo-4,5-dihydropyrazolo[1,5-a]pyrazine-2-carboxamide], the half-maximal inhibitory concentration (IC50) was determined as 8.75 nM.

For the compound `Cc1cccc2ncc(-c3cn4nc(C(=O)N[C@@H](CO)c5ccccc5)c(C(C)C)c4c(=O)[nH]3)cc12` [Example 4-67, N-[(7R)-2-Hydroxy-1-phenylethyl]-6-(5-methylquinolin-3-yl)-4-oxo-3-(propan-2-yl)-4,5-dihydropyrazolo[1,5-a]pyrazine-2-carboxamide], the half-inhibitory concentration (IC50) was 1.55 nM.

Consider `Cc1ccc(-c2cn3nc(C(=O)NC(CO)C(F)(F)F)c(C(F)(F)F)c3c(=O)[nH]2)cc1Cl` (racemic) [6-161], for which the 50% inhibitory concentration (IC50) was 2.3 nM.

As for `Cc1cccc2ncc(-c3cn4nc(C(=O)N[C@H]5CC[C@H](O)CC5)c(C(C)C)c4c(=O)[nH]3)cc12` [Example 4-32, N-(trans-4-Hydroxycyclohexyl)-3-isopropyl-6-(5-methylquinolin-3-yl)-4-oxo-4,5-dihydropyrazolo[1,5-a]pyrazine-2-carboxamide], the IC50 came out at 6.5 nM.

`Cc1ccc(-c2cn3nc(C(=O)N[C@@H](c4ccc(F)cc4)C(C)(C)O)c(C4CC4(F)F)c3c(=O)[nH]2)cc1Cl` (stereo partly drawn) [6-563]: the 50% inhibitory concentration (IC50) was found to be 2.9 nM.

As to `C[C@@H](NC(=O)c1cc2c(=O)[nH]c(-c3ccc4ccccc4c3)cn2n1)c1ccc2ccccc2c1` [Example 2-41, 6-(2-Naphthyl)-N-[(7R)-1-(2-naphthyl)ethyl]-4-oxo-4,5-dihydropyrazolo[1,5-a]pyrazine-2-carboxamide], the IC50 came out at 2.15 nM.

As to `Cc1cc(-c2cn3nc(C(=O)NC(c4ccc(F)cc4)C4(O)CC4)c(C(F)(F)F)c3c(=O)[nH]2)ccc1Cl` (single isomer, unassigned) [6-212], the IC50 stood at 8.15 nM.

On to `Cc1cc(-c2cn3nc(C(=O)N[C@H](CN4CCOCC4)c4ccc(F)cc4)c(C4CC4)c3c(=O)[nH]2)ccc1Cl` [6-337], for which the half-inhibitory concentration (IC50) is 1.5 nM.

Turning to `COc1ccc(C(C)NC(=O)c2cc3c(=O)[nH]c(-c4ccc5ccccc5c4)cn3n2)cc1OC` (stereo not drawn) [Example 2-55, N-[1-(3,4-Dimethoxyphenyl)ethyl]-6-(2-naphthyl)-4-oxo-4,5-dihydropyrazolo[1,5-a]pyrazine-2-carboxamide], the IC50 worked out at 1.15 nM.

For `Cc1ccc(-c2cn3nc(C(=O)N[C@@H](c4ccc(F)cc4)C(F)(F)CO)c(C)c3c(=O)[nH]2)c(F)c1F` [6-413], the concentration for half-maximal inhibition (IC50) came to 3.43 nM.

Regarding `CCCc1c(C(=O)N[C@H](C)c2ccc(F)cc2)nn2cc(-c3ccc(C)c(C)c3)[nH]c(=O)c12` [6-614], the IC50 was 0.82 nM.

`CCN(CCO)CC(NC(=O)c1cc2c(=O)[nH]c(-c3ccc(C)c(C)c3)cn2n1)c1ccccc1` (stereo not drawn) [Example 1-85, 6-(3,4-Dimethylphenyl)-N-[2-[ethyl(2-hydroxyethyl)amino]-1-phenylethyl]-4-oxo-5H-pyrazolo-[1,5-a]pyrazine-2-carboxamide]: the IC50 stood at 3 nM.

For `Cc1ccc(-c2cn3nc(C(=O)NCCN(CC(F)F)C4CC4)c(C4CC4)c3c(=O)[nH]2)cc1F` [6-379], the IC50 was found to be 1.8 nM.

As for `O=C(N[C@@H](c1ccc(F)cc1)C(F)(F)CO)c1nn2cc(-c3cccc(Cl)c3)[nH]c(=O)c2c1C1CC1` [6-678], the IC50 came to 5.2 nM.

Turning to `O=C(NCC(O)C(F)(F)F)c1nn2cc(-c3ccc(Cl)c(Cl)c3)[nH]c(=O)c2c1C1CC1` (single isomer, unassigned) [6-416], the IC50 was 2.8 nM.
